Experimental data taken from PubChem BioAssay AID256 (DTP/NCI, 2004).
Several values for one entry are separate records, joined by “and”; a condition that tells them apart may be missing. Equal entries are not always repeated. Toxic doses and inconclusive results are not listed. How the source made its calls: active means survival T/C of 150% or more; inactive means T/C below 125% in these data.

Tested on: CD2F1 mice, L1210 leukemia ip, survival T/C
Assay: NCI In Vivo Anticancer Drug Screen. Data for tumor model L1210 Leukemia (intraperitoneal) in CD2F1 (CDF1) mice
Conditions: higher = longer survival
In short: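 Mice carrying a transplanted tumor received test compound or vehicle alone. The value is the measurement in the treated group divided by that in the vehicle-treated control group.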

[1] = endpoint: mean survival time, dose: 100.0 mg/kg/injection, schedule: Q04DX003 (ip), vehicle: saline with Tween-80
[2] = endpoint: mean survival time, dose: 400.0 mg/kg/injection, schedule: Q04DX003 (ip), vehicle: saline with Tween-80
[3] = endpoint: mean survival time, dose: 75.0 mg/kg/injection, schedule: Q01DX001 (ip), vehicle: saline
[4] = endpoint: mean survival time, dose: 150.0 mg/kg/injection, schedule: Q01DX001 (ip), vehicle: saline
[5] = endpoint: mean survival time, dose: 25.0 mg/kg/injection, schedule: Q01DX009 (ip), vehicle: saline
[6] = endpoint: mean survival time, dose: 200.0 mg/kg/injection, schedule: Q04DX003 (ip), vehicle: saline with Tween-80

Measured: T/C

Nc1ccc(-c2c(N)nc(Br)c3ccccc23)cc1
inactive: endpoint: mean survival time, dose: 50.0 mg/kg/injection, schedule: Q04DX003 (ip), vehicle: DMSO 98 % of control | endpoint: mean survival time, dose: 100.0 mg/kg/injection, schedule: Q04DX003 (ip), vehicle: DMSO 93 % of control | endpoint: mean survival time, dose: 200.0 mg/kg/injection, schedule: Q04DX003 (ip), vehicle: DMSO 110 % of control | endpoint: mean survival time, dose: 400.0 mg/kg/injection, schedule: Q04DX003 (ip), vehicle: DMSO 104 % of control

CCOc1ccc2ccccc2c1C
inactive: endpoint: mean survival time, dose: 100.0 mg/kg/injection, schedule: Q04DX002 (ip), vehicle: other 120 % of control | endpoint: mean survival time, dose: 200.0 mg/kg/injection, schedule: Q04DX002 (ip), vehicle: other 112 % of control | endpoint: mean survival time, dose: 400.0 mg/kg/injection, schedule: Q04DX002 (ip), vehicle: other 104 % of control

O=C1NC(=O)C(c2ccccc2)(C2CCC2)N1 (stereo not drawn)
inactive: [1] 95 % of control | [2] 88 % of control

Nc1nc2ccc(CSc3ccc(C(=O)NC(CCC(=O)O)C(=O)O)cc3)nc2c(=O)[nH]1 (stereo not drawn)
inactive: endpoint: mean survival time, dose: 0.5 mg/kg/injection, schedule: Q01DX005 (ip), vehicle: sodium bicarbonate 103 % of control and 106 % of control | endpoint: mean survival time, dose: 1.0 mg/kg/injection, schedule: Q01DX005 (ip), vehicle: sodium bicarbonate 97 % of control and 106 % of control | endpoint: mean survival time, dose: 2.0 mg/kg/injection, schedule: Q01DX005 (ip), vehicle: sodium bicarbonate 97 % of control and 108 % of control | endpoint: mean survival time, dose: 4.0 mg/kg/injection, schedule: Q01DX005 (ip), vehicle: sodium bicarbonate 101 % of control and 106 % of control | endpoint: mean survival time, dose: 8.0 mg/kg/injection, schedule: Q01DX005 (ip), vehicle: sodium bicarbonate 97 % of control and 108 % of control | endpoint: mean survival time, dose: 16.0 mg/kg/injection, schedule: Q01DX005 (ip), vehicle: sodium bicarbonate 102 % of control and 103 % of control

COc1ccc2c(c1O)CNCC2c1ccc(O)cc1O (stereo not drawn)
inactive: [3] 100 % of control | [4] 98 % of control

CN1C2Cc3cc4c(cc3C1Cc1cc3c(cc12)OCO3)OCO4
inactive: [3] 100 % of control | [4] 94 % of control

CC(Br)C1(c2cccc([N+](=O)[O-])c2)OCCO1 (stereo not drawn)
inactive: endpoint: mean survival time, dose: 12.0 mg/kg/injection, schedule: Q01DX009 (ip), vehicle: saline 96 % of control | [5] 112 % of control | endpoint: mean survival time, dose: 50.0 mg/kg/injection, schedule: Q01DX009 (ip), vehicle: saline 106 % of control

Nc1nc2ncc(CNc3ccc(C(=O)NC(CCC(=O)O)C(=O)O)cc3)nc2c(=O)[nH]1.[NH-]C1CCCCC1[NH-].[Pt+2] (stereo not drawn)
inactive: endpoint: median survival time, dose: 3.12 mg/kg/injection, schedule: Q04DX003 (ip), vehicle: saline 102 % of control and 104 % of control | endpoint: median survival time, dose: 6.25 mg/kg/injection, schedule: Q04DX003 (ip), vehicle: saline 107 % of control and 108 % of control | endpoint: median survival time, dose: 12.5 mg/kg/injection, schedule: Q04DX003 (ip), vehicle: saline 105 % of control | endpoint: median survival time, dose: 25.0 mg/kg/injection, schedule: Q04DX003 (ip), vehicle: saline 116 % of control and 108 % of control | endpoint: median survival time, dose: 50.0 mg/kg/injection, schedule: Q04DX003 (ip), vehicle: saline 114 % of control and 111 % of control | endpoint: median survival time, dose: 100.0 mg/kg/injection, schedule: Q04DX003 (ip), vehicle: saline 113 % of control and 115 % of control
active: endpoint: median survival time, dose: 200.0 mg/kg/injection, schedule: Q04DX003 (ip), vehicle: saline 161 % of control

NCc1ccc(N)cc1
inactive: [3] 98 % of control | [4] 95 % of control | endpoint: mean survival time, dose: 300.0 mg/kg/injection, schedule: Q01DX001 (ip), vehicle: saline 96 % of control

C=CCOCC(O)CN(CCCC)CCCC (stereo not drawn)
inactive: endpoint: mean survival time, dose: 25.0 mg/kg/injection, schedule: Q04DX003 (ip), vehicle: saline with Tween-80 104 % of control | endpoint: mean survival time, dose: 50.0 mg/kg/injection, schedule: Q04DX003 (ip), vehicle: saline with Tween-80 106 % of control | [1] 90 % of control and 110 % of control

O=C(CCl)Nc1cc(C(F)(F)F)ccc1Cl
inactive: endpoint: mean survival time, dose: 6.25 mg/kg/injection, schedule: Q01DX009 (ip), vehicle: saline with Tween-80 101 % of control | endpoint: mean survival time, dose: 12.5 mg/kg/injection, schedule: Q01DX009 (ip), vehicle: saline with Tween-80 101 % of control | endpoint: mean survival time, dose: 25.0 mg/kg/injection, schedule: Q01DX009 (ip), vehicle: saline with Tween-80 104 % of control | [1] 104 % of control | [6] 97 % of control | [2] 97 % of control

CN(N=O)C(=O)NCC1CCC(CNC(=O)N(C)N=O)CC1 (stereo not drawn)
inactive: endpoint: mean survival time, dose: 100.0 mg/kg/injection, schedule: Q01DX001 (ip), vehicle: carboxymethylcellulose (CMC) 96 % of control | endpoint: mean survival time, dose: 200.0 mg/kg/injection, schedule: Q01DX001 (ip), vehicle: carboxymethylcellulose (CMC) 88 % of control and 98 % of control | endpoint: mean survival time, dose: 300.0 mg/kg/injection, schedule: Q01DX001 (ip), vehicle: carboxymethylcellulose (CMC) 98 % of control and 93 % of control | endpoint: mean survival time, dose: 400.0 mg/kg/injection, schedule: Q01DX001 (ip), vehicle: carboxymethylcellulose (CMC) 101 % of control and 108 % of control | endpoint: mean survival time, dose: 500.0 mg/kg/injection, schedule: Q01DX001 (ip), vehicle: carboxymethylcellulose (CMC) 106 % of control and 107 % of control | endpoint: mean survival time, dose: 600.0 mg/kg/injection, schedule: Q01DX001 (ip), vehicle: carboxymethylcellulose (CMC) 104 % of control | endpoint: mean survival time, dose: 800.0 mg/kg/injection, schedule: Q01DX001 (ip), vehicle: carboxymethylcellulose (CMC) 111 % of control | endpoint: mean survival time, dose: 1000.0 mg/kg/injection, schedule: Q01DX001 (ip), vehicle: carboxymethylcellulose (CMC) 112 % of control

O=S1OCC2(CO1)COS(=O)OC2 (stereo not drawn)
inactive: endpoint: mean survival time, dose: 3.13 mg/kg/injection, schedule: Q01DX001 (ip), vehicle: saline with Tween-80 108 % of control | endpoint: mean survival time, dose: 6.25 mg/kg/injection, schedule: Q01DX001 (ip), vehicle: saline with Tween-80 100 % of control

CCC1(O)C(=O)OCc2c1cc1n(c2=O)Cc2cc3ccc(C(F)(F)F)cc3nc2-1 (stereo not drawn)
inactive: endpoint: median survival time, dose: 10.0 mg/kg/injection, schedule: Q04DX002 (ip), vehicle: saline with Tween-80 103 % of control | endpoint: median survival time, dose: 20.0 mg/kg/injection, schedule: Q04DX002 (ip), vehicle: saline with Tween-80 100 % of control | endpoint: median survival time, dose: 40.0 mg/kg/injection, schedule: Q04DX002 (ip), vehicle: saline with Tween-80 104 % of control | endpoint: median survival time, dose: 80.0 mg/kg/injection, schedule: Q04DX002 (ip), vehicle: saline with Tween-80 104 % of control

O=C(Nc1cc2ccccc2o1)O/N=C/c1ccccn1
inactive: [1] 92 % of control | [6] 92 % of control | [2] 86 % of control

CC(=O)C1C(=O)OC2(C)C(=O)C3=COC(/C=C\C(C)=C/C(C)C)=CC3=CC12 (stereo not drawn)
inactive: endpoint: mean survival time, dose: 100.0 mg/kg/injection, schedule: Q01DX009 (ip), vehicle: saline with Tween-80 100 % of control | endpoint: mean survival time, dose: 200.0 mg/kg/injection, schedule: Q01DX009 (ip), vehicle: saline with Tween-80 104 % of control | [6] 91 % of control | endpoint: mean survival time, dose: 400.0 mg/kg/injection, schedule: Q01DX009 (ip), vehicle: saline with Tween-80 111 % of control | [2] 88 % of control

Cc1c(C)c(O)c(Br)c(C)c1O (tested in a mixture with another compound)
inactive: endpoint: mean survival time, dose: 25.0 mg/kg/injection, schedule: Q04DX003 (ip), vehicle: other 100 % of control | endpoint: mean survival time, dose: 50.0 mg/kg/injection, schedule: Q04DX003 (ip), vehicle: other 94 % of control

O=C(SCCNCCNC1CC2CCC1C2)c1ccccc1 (stereo not drawn)
inactive: endpoint: mean survival time, dose: 9.4 mg/kg/injection, schedule: Q01DX009 (ip), vehicle: saline with Tween-80 98 % of control | endpoint: mean survival time, dose: 9.4 mg/kg/injection, schedule: Q04DX003 (ip), vehicle: saline with Tween-80 95 % of control | endpoint: mean survival time, dose: 18.8 mg/kg/injection, schedule: Q01DX001 (ip), vehicle: saline 97 % of control | endpoint: mean survival time, dose: 18.8 mg/kg/injection, schedule: Q01DX009 (ip), vehicle: saline with Tween-80 97 % of control | endpoint: mean survival time, dose: 18.8 mg/kg/injection, schedule: Q04DX003 (ip), vehicle: saline with Tween-80 92 % of control | endpoint: mean survival time, dose: 37.5 mg/kg/injection, schedule: Q01DX001 (ip), vehicle: saline 100 % of control | endpoint: mean survival time, dose: 37.5 mg/kg/injection, schedule: Q01DX009 (ip), vehicle: saline with Tween-80 97 % of control | endpoint: mean survival time, dose: 37.5 mg/kg/injection, schedule: Q04DX003 (ip), vehicle: saline with Tween-80 95 % of control

c1ccc(Nc2ccccc2)cc1 (tested in a mixture with another compound)
inactive: endpoint: mean survival time, dose: 100.0 mg/kg/injection, schedule: Q04DX002 (ip), vehicle: saline 95 % of control

CC(C)NC(=O)NC(C)C
inactive: endpoint: mean survival time, dose: 100.0 mg/kg/injection, schedule: Q01DX001 (ip), vehicle: saline 107 % of control | endpoint: mean survival time, dose: 200.0 mg/kg/injection, schedule: Q01DX001 (ip), vehicle: saline 102 % of control | endpoint: mean survival time, dose: 400.0 mg/kg/injection, schedule: Q01DX001 (ip), vehicle: saline 100 % of control

CN(C)c1ccc(C(O)C(N)=O)cc1 (stereo not drawn)
inactive: endpoint: mean survival time, dose: 6.25 mg/kg/injection, schedule: Q01DX009 (ip), vehicle: saline 94 % of control | endpoint: mean survival time, dose: 6.25 mg/kg/injection, schedule: Q04DX003 (ip), vehicle: saline 102 % of control | endpoint: mean survival time, dose: 12.5 mg/kg/injection, schedule: Q01DX009 (ip), vehicle: saline 94 % of control | endpoint: mean survival time, dose: 12.5 mg/kg/injection, schedule: Q04DX003 (ip), vehicle: saline 95 % of control | [5] 93 % of control | endpoint: mean survival time, dose: 25.0 mg/kg/injection, schedule: Q04DX003 (ip), vehicle: saline 106 % of control
